Values quoted from earlier work in US8765739B2, “Azetidine compound and pharmaceutical use thereof” (Japan Tobacco Inc., priority 2009, dated 2014).

What was measured:
[1] = system: mice with collagen-induced arthritis
[2] = system: rats suffering from experimental autoimmune encephalomyelitis; settings: animal model of multiple sclerosis
[3] = system: bone absorption induced by metastatic cancer in rat

Compound: COc1cc(Oc2ccnc3cc(OC)c(OC)cc23)ccc1NC(=O)NC(C)c1nccs1 (stereo not drawn) [Ki20227]
- swellings and bone destructions [1]: improves swellings and bone destructions
- condition of rats with experimental autoimmune encephalomyelitis [2]: improves the condition
- bone absorption induced by metastatic cancer [3]: improves bone absorption
